# Assay results taken from ChEMBL document CHEMBL4840354, “Identification of Diarylurea Inhibitors of the Cardiac-Specific Kinase TNNI3K by Designing Selectivity Against VEGFR2, p38α, and B-Raf” (J Med Chem, 2021).
# What was measured:
# [1] = target: Serine/threonine-protein kinase B-raf (Homo sapiens, UniProt P15056); experiment: Inhibition of B-Raf (unknown origin)
# [2] = target: T1, Serine/threonine-protein kinase TNNI3K (Homo sapiens, UniProt Q59H18); experiment: Inhibition of human myc-TNNI3K expressed in HEK-MSR2 cells assessed as reduction in TNNI3K autophosphorylation preincubated for 30 mins followed by pervanadate addition and measured after 20 mins by DELFIA; format: cell-based
# T1 sequence (Q59H18 whole entry): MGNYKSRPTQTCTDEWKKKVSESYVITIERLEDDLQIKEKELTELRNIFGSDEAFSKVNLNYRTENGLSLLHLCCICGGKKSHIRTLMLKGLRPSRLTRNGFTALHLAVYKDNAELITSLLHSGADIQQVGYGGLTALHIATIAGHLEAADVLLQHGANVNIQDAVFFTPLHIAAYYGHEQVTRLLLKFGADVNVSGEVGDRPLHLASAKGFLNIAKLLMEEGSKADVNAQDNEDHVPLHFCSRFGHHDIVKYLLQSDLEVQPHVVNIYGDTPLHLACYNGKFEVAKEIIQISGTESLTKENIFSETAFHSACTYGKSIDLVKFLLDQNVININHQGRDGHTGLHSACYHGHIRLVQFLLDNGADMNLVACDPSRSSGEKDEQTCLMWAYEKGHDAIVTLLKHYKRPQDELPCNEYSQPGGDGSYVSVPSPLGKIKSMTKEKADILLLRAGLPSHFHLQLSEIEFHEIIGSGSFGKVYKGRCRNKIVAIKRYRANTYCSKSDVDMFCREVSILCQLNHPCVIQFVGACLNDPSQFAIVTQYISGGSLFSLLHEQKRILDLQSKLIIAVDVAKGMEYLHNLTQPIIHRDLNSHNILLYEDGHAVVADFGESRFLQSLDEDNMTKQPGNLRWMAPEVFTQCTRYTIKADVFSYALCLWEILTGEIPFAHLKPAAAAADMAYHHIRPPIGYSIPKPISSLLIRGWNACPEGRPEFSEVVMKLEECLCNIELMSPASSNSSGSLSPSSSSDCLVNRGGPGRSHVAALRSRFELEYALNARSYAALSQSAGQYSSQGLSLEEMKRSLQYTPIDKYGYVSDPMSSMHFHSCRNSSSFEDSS
# [3] = organism: Homo sapiens; experiment: Selectivity index, ratio of IC50 for inhibition of p38alpha (unknown origin) to IC50 for inhibition of TNNI3K (unknown origin)
# [4] = organism: Homo sapiens; experiment: Selectivity index, ratio of IC50 for inhibition of VEGFR2 (unknown origin) to IC50 for inhibition of TNNI3K (unknown origin)
# [5] = target: T1, Serine/threonine-protein kinase TNNI3K; experiment: Inhibition of TNNI3K (unknown origin)
# [6] = Permeability of compound incubated for 2 hrs by liquid chromatography analysis; format: ADME; settings: read-out: permeability
# [7] = Dose normalized AUC in po dosed rat administered as cassette dose; format: ADME, organism-based; settings: in vivo
# [8] = target: Vascular endothelial growth factor receptor 2 (Homo sapiens, UniProt P35968); experiment: Inhibition of GST-6His tagged VEGFR2 (unknown origin) using biotin-aminohexyl-EEEEYFELVAKKKK-NH2 peptide substrate incubated for 90 mins by HTRF assay
# Sequence of Vascular endothelial growth factor receptor 2 (P35968 whole entry): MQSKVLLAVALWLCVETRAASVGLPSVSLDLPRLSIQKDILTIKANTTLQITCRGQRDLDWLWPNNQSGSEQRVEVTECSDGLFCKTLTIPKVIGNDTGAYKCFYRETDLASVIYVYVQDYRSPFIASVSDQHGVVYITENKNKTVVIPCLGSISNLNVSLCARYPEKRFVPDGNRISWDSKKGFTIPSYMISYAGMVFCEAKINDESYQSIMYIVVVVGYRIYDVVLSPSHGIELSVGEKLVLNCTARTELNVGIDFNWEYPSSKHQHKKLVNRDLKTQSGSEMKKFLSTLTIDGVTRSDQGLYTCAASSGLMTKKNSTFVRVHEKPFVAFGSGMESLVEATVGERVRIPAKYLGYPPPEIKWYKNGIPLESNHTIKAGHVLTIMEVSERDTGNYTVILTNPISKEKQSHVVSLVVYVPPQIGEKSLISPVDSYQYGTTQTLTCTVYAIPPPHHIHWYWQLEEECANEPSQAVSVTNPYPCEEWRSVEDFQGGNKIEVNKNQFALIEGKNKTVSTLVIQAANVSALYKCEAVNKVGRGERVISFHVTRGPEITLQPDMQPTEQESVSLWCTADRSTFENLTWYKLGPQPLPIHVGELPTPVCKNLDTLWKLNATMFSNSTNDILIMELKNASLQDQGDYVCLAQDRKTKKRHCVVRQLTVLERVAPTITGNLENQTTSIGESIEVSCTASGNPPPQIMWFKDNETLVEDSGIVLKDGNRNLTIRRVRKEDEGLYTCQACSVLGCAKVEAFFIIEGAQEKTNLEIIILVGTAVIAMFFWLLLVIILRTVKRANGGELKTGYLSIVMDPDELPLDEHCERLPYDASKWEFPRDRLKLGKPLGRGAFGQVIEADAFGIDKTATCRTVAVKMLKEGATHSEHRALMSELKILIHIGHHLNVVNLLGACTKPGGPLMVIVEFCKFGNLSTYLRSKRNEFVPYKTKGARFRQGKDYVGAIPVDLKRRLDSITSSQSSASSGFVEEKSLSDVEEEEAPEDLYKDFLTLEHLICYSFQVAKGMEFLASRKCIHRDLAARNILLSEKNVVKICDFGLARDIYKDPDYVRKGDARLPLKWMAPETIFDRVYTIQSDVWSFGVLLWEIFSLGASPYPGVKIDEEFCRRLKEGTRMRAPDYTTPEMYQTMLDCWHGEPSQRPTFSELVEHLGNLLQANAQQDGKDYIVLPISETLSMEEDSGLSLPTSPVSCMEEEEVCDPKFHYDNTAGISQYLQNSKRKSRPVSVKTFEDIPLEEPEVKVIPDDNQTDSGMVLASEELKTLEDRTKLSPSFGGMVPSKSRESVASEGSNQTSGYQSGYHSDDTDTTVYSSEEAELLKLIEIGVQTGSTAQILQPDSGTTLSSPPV
# [9] = target: Mitogen-activated protein kinase 14 (Homo sapiens, UniProt Q16539); experiment: Inhibition of p38alpha (unknown origin)
# Sequence of Mitogen-activated protein kinase 14 (Q16539 whole entry): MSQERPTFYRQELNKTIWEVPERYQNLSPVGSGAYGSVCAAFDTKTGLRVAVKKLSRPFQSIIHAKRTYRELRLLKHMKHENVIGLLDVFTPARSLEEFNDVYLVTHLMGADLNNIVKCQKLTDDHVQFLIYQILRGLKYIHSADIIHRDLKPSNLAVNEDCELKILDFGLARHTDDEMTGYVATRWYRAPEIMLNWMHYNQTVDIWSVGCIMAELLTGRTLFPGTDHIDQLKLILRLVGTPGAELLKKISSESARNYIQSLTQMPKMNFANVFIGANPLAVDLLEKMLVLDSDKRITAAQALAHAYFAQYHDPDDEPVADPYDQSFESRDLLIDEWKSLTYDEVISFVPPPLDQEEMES
# [10] = Half life in po dosed rat administered as cassette dose; format: ADME, organism-based; settings: in vivo
# [11] = target: T2, Serine/threonine-protein kinase TNNI3K (Mus musculus) (UniProt Q5GIG6)
# T2 sequence (whole entry): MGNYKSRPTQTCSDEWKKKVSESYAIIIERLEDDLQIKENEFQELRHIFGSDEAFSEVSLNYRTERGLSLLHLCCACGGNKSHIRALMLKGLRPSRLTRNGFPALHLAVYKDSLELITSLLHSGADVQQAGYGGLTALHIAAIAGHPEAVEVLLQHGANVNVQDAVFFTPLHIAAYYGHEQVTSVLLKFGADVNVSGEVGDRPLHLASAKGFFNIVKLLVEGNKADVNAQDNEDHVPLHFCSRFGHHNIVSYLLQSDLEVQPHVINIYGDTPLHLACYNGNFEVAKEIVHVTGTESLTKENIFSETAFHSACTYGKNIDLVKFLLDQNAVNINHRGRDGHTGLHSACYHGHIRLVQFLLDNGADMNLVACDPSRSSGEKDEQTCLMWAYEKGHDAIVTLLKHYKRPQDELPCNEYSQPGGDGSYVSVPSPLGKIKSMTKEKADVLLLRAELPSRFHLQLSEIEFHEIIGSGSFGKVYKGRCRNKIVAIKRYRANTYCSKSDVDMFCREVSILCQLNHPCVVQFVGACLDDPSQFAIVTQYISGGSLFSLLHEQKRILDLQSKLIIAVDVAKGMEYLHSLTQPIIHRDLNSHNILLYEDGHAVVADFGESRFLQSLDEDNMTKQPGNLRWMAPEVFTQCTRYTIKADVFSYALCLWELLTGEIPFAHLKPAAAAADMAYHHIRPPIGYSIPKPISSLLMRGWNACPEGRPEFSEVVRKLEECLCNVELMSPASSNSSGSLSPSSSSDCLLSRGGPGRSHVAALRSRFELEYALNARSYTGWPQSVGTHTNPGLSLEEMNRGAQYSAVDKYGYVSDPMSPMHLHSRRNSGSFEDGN
# Description: Binding affinity to full length mouse His-MBP-TNNI3K assessed as half life in presence of rhodamine green labeled GW805818X by fluorescence competitive binding assay
# [12] = target: Voltage-gated inwardly rectifying potassium channel KCNH2 (Homo sapiens, UniProt Q12809); experiment: Inhibition of human ERG expressed in HEK293 cells; format: cell-based
# Sequence of Voltage-gated inwardly rectifying potassium channel KCNH2 (Q12809 whole entry): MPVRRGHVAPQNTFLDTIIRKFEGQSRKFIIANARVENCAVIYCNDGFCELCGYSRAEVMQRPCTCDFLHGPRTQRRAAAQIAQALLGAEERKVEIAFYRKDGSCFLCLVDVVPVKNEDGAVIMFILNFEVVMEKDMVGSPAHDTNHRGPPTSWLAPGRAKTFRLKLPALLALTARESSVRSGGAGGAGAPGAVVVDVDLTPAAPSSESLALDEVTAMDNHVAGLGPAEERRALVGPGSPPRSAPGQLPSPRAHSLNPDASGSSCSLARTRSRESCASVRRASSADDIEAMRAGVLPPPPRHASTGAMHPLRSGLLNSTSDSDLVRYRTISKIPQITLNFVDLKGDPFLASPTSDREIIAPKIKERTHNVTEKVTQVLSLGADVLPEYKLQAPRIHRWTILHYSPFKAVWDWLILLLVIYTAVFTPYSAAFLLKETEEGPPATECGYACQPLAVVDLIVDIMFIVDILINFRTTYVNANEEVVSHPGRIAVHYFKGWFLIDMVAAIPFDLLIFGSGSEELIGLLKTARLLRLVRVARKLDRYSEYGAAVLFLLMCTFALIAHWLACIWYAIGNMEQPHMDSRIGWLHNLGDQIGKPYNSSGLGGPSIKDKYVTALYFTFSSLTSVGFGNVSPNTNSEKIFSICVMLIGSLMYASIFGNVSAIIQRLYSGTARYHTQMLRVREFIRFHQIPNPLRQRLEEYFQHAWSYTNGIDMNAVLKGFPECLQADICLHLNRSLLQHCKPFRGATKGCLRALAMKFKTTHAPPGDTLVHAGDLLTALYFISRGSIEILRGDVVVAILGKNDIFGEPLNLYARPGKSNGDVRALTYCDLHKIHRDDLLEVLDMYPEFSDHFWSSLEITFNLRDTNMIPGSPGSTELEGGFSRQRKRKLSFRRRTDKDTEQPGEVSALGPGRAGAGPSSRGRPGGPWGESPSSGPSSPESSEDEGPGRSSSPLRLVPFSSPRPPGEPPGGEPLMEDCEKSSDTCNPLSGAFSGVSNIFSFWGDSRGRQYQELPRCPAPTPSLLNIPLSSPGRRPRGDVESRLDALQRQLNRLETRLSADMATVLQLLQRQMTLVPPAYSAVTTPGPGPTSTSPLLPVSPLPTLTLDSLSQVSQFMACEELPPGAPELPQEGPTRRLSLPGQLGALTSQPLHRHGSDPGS
# [13] = target: T1, Serine/threonine-protein kinase TNNI3K; experiment: Binding affinity to full length human His-MBP-TNNI3K assessed as off-rate constant in presence of rhodamine green labeled GW805818X by fluorescence competitive binding assay
# [14] = target: T3, Serine/threonine-protein kinase TNNI3K (Mus musculus, UniProt Q5GIG6); experiment: Binding affinity to full length mouse His-MBP-TNNI3K assessed as off-rate constant in presence of rhodamine green labeled GW805818X by fluorescence competitive binding assay
# T3 sequence (Q5GIG6 whole entry): T2 sequence (whole entry)
# [15] = target: T4, Serine/threonine-protein kinase TNNI3K (Homo sapiens) (UniProt Q59H18)
# T4 sequence (whole entry): T1 sequence (Q59H18 whole entry)
# Description: Binding affinity to full length human His-MBP-TNNI3K assessed as half life in presence of rhodamine green labeled GW805818X by fluorescence competitive binding assay
# Sequence of Serine/threonine-protein kinase B-raf (P15056 whole entry): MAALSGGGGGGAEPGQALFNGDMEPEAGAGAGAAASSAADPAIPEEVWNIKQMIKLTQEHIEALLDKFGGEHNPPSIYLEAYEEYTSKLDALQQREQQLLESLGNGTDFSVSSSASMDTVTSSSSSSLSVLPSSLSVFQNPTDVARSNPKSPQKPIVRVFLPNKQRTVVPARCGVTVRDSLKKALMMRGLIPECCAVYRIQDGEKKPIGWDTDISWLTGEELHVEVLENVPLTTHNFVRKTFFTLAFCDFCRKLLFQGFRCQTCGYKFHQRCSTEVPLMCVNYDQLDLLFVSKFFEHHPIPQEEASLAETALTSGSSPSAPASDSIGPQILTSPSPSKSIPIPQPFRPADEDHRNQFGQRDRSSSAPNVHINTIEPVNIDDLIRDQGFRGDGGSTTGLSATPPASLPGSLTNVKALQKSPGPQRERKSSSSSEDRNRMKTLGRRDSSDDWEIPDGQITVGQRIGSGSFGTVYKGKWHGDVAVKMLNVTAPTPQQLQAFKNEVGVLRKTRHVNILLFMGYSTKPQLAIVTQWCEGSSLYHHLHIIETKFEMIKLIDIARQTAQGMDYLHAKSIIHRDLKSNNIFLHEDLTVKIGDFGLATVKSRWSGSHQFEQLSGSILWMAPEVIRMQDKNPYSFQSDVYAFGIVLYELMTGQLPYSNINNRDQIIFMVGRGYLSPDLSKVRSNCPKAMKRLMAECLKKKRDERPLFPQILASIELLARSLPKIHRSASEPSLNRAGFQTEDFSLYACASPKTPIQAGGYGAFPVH
SMILES,IC50 [1],IC50 [2],Ratio IC50 [3],Ratio IC50 [4],IC50 [5],Papp at 2 h [6],AUC/dose [7],IC50 [8],IC50 [9],half-life [10],T1/2 [11],Ki [13],Ki [14],T1/2 [15],IC50 [12]
Nc1cc(Oc2ccc(NC(=O)Nc3cccc(C(F)(F)F)c3)cc2)ncn1,1600 nM,16 nM,40,0.32,25 nM,24.5 ×10⁻⁶ cm/s,0.4 kg·h/L,7.9 nM,1000 nM,3.2 h,,,,,
CNC(=O)c1cc(Oc2ccc(NC(=O)Nc3ccc(Cl)c(C(F)(F)F)c3)cc2)ccn1 [SORAFENIB],,,,,,11 ×10⁻⁶ cm/s,5.8 kg·h/L,,,6.8 h,,,,,
CNS(=O)(=O)c1ccc(N(C)C)c(Nc2ncnc3[nH]ccc23)c1,6 nM,,,,,,0.59 kg·h/L,,,,,,,,
CNS(=O)(=O)c1ccc(N(C)C)c(Nc2ncnc3cc(OC)c(OC)cc23)c1,1000 nM,,,,,,0.18 kg·h/L,,,,,,,,
CC(C)(O)CNc1cc(Oc2ccc(NC(=O)Nc3cccc(C(F)(F)F)c3)cc2)ncn1,1600 nM,50 nM,16,8,40 nM,21 ×10⁻⁶ cm/s,2 kg·h/L,320 nM,630 nM,3.7 h,,,,,
O=C(Nc1ccc(Oc2cc(NCCO)ncn2)cc1)Nc1cccc(C(F)(F)F)c1,1000 nM,40 nM,31,2.5,32 nM,8.2 ×10⁻⁶ cm/s,0.3 kg·h/L,79 nM,1000 nM,4.5 h,,,,,
CNc1cc(Oc2c(C)cc(NC(=O)Nc3cccc(C(F)(F)F)c3)cc2C)ncn1,2000 nM,7.9 nM,250,40,,29.5 ×10⁻⁶ cm/s,1.5 kg·h/L,1000 nM,6300 nM,2.4 h,,,,,
CNc1cc(Oc2ccc(NC(=O)Nc3cccc(C(F)(F)F)c3)cc2Cl)ncn1,500 nM,,16,1,50 nM,,,50 nM,800 nM,,,,,,
CNc1cc(Oc2ccc(NC(=O)Nc3cccc(C(C)(C)C)c3)cc2)ncn1,400 nM,,25,0.63,40 nM,,,25 nM,1000 nM,,,,,,

# Continued, in another order:
IC50 [1],IC50 [2],Ratio IC50 [3],Ratio IC50 [4],IC50 [5],Papp at 2 h [6],AUC/dose [7],IC50 [8],IC50 [9],half-life [10],T1/2 [11],Ki [13],Ki [14],T1/2 [15],SMILES,IC50 [12]
> 2000 nM,100 nM,> 160,> 250,≤ 10 nM,5.9 ×10⁻⁶ cm/s,1.2 kg·h/L,2500 nM,1600 nM,3.7 h,,,,,CCc1cc(NC(=O)Nc2cccc(C(F)(F)F)c2)cc(Cl)c1Oc1cc(NC)ncn1,
500 nM,20 nM,25,0.63,40 nM,23 ×10⁻⁶ cm/s,3.8 kg·h/L,25 nM,1000 nM,3.2 h,,,,,CNc1cc(Oc2ccc(NC(=O)Nc3cccc(C(F)(F)F)c3)cc2)ncn1,
,,,,≤ 10 nM,,0.56 kg·h/L,,,,,,,,CCS(=O)(=O)c1ccc(S(=O)(=O)NC)cc1Nc1cc(Nc2ccc(Cl)cn2)ncn1,
> 2000 nM,100 nM,80,40,10 nM,7.4 ×10⁻⁶ cm/s,3.8 kg·h/L,400 nM,800 nM,5.4 h,0.417 h,0.54 nM,13 nM,1.3 h,CNc1cc(Oc2c(Cl)cc(NC(=O)Nc3cccc(C(F)(F)F)c3)cc2Cl)ncn1,> 31600 nM
1000 nM,,3.9,0.3,160 nM,,,50 nM,630 nM,,,,,,O=C(Nc1ccc(Oc2ccncn2)cc1)Nc1cccc(C(F)(F)F)c1,
> 2000 nM,,0.5,1,3200 nM,,,3200 nM,1600 nM,,,,,,O=C(Nc1ccc(Oc2cc(O)ncn2)cc1)Nc1cccc(C(F)(F)F)c1,
> 2000 nM,,4,5,32 nM,,,160 nM,130 nM,,,,,,CNc1cc(Oc2c(C)cc(NC(=O)Nc3cccc(C(F)(F)F)c3)c3ccccc23)ncn1,
